# Reference: ChEMBL document CHEMBL5505963, “Novel berberine derivatives as p300 histone acetyltransferase inhibitors in combination treatment for breast cancer” (Eur J Med Chem, 2024)
# Activity calls are given as the source filed them. The rule behind the calls is not given here.
# Legend:
# [1] = target: Histone acetyltransferase p300 (Homo sapiens, UniProt Q09472); assay: Inhibition of p300 HAT (unknown origin) using 3H-acetyl-CoA as substrate assessed as H3 peptide acetylation preincubated with compound for 15 mins followed by substrate addition and measured after 30 mins by microbeta scintillation counter analysis
# Sequence of Histone acetyltransferase p300 (Q09472 whole entry): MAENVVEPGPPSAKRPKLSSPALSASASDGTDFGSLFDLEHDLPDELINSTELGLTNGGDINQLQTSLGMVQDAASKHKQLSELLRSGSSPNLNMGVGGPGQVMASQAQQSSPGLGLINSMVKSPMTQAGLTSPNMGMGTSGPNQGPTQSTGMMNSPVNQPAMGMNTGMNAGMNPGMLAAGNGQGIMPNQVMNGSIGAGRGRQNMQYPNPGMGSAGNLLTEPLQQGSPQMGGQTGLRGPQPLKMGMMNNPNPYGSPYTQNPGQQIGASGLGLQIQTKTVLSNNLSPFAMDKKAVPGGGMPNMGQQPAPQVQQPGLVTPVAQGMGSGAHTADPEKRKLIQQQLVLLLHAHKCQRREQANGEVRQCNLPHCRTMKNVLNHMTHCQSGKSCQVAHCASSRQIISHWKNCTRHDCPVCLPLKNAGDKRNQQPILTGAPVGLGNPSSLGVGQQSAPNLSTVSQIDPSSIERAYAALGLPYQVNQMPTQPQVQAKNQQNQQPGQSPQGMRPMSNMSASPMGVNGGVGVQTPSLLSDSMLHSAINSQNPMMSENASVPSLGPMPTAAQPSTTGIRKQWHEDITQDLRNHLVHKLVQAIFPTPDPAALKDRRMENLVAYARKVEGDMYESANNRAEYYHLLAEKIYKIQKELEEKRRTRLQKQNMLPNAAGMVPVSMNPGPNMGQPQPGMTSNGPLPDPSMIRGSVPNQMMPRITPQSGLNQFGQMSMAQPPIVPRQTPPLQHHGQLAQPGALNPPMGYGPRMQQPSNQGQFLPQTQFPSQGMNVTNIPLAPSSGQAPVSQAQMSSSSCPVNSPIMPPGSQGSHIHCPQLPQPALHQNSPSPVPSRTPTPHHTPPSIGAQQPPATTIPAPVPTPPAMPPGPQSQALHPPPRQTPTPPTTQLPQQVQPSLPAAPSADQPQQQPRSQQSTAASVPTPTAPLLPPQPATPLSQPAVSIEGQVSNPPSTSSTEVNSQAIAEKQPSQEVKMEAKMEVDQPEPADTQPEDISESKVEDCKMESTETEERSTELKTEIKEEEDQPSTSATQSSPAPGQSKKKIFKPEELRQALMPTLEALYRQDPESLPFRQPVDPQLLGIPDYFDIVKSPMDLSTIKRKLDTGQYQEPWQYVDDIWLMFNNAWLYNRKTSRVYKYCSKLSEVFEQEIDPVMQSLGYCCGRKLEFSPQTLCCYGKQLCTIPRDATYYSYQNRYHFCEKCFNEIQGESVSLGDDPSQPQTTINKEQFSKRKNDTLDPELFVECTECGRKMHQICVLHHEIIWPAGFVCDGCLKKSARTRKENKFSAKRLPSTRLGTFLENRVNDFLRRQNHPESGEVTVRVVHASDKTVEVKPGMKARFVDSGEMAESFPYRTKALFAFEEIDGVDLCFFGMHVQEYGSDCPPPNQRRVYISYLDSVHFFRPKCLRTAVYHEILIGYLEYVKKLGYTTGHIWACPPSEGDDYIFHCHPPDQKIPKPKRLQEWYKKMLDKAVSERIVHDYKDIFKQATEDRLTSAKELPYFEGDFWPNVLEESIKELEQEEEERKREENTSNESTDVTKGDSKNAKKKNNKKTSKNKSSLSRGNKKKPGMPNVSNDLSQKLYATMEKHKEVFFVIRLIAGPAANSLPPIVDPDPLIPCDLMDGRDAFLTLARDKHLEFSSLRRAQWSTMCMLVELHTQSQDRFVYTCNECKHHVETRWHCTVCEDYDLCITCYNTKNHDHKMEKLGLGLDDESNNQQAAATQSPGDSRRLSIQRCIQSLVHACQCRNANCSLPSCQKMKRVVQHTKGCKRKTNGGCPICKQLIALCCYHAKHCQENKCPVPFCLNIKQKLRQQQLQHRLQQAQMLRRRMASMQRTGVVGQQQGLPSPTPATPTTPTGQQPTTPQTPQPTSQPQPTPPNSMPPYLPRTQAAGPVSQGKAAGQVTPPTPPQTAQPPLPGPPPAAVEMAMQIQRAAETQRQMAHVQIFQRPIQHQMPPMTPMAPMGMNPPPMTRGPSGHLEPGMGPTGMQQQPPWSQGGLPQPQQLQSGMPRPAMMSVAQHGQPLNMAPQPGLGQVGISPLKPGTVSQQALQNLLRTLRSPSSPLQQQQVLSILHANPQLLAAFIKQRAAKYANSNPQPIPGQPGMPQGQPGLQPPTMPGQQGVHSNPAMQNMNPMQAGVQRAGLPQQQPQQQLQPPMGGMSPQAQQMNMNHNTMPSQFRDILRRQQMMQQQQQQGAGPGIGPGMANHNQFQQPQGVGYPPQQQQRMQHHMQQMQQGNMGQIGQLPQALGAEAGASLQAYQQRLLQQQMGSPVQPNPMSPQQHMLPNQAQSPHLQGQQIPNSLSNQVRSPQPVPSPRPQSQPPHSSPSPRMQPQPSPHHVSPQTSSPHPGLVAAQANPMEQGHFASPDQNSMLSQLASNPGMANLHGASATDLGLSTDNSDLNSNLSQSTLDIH
# MCF7 [2] = assay: Antiproliferative activity against human MCF7 cells assessed as inhibition of cell proliferation incubated for 48 hrs by MTT assay; type: functional, cell-based; conditions: MCF7, 48 h
# MCF7 [3] = assay: Antitumor activity against human MCF7 cells xenografted in BALB/c nude mouse assessed as tumor growth inhibition at 50 mg/kg, ip measured upto 14 days in presence of doxorubicin; type: functional; conditions: MCF7, 336 h, time <= 14 day, read-out: TGI
# [4] = Toxicity in BALB/c nude mouse xenografted with human MCF7 cells assessed as loss of body weight at 50 mg/kg, ip measured upto 14 days; type: organism-based; conditions: in vivo, 336 h, time < 14 day
# PANC-1 = assay: Antiproliferative activity against human PANC-1 cells assessed as inhibition of cell growth incubated for 48 hrs by MTT assay; type: functional, cell-based; conditions: PANC-1, 48 h
# MCF7 [5] = assay: Synergistic antiproliferative activity against human MCF7 cells assessed as combination index at 40 uM incubated for 48 hrs in presence of 2 microg/ml doxorubicin by Chou-Talalay method; type: functional
# MCF7 [6] = assay: Synergistic antiproliferative activity against human MCF7 cells assessed as combination index at 5 uM incubated for 48 hrs in presence of 1.5 microg/ml doxorubicin by Chou-Talalay method; type: functional
# MCF7 [7] = assay: Synergistic antiproliferative activity against human MCF7 cells assessed as combination index at 20 uM incubated for 48 hrs in presence of 3 microg/ml doxorubicin by Chou-Talalay method; type: functional
# MCF7 [8] = assay: Synergistic antiproliferative activity against human MCF7 cells assessed as combination index at 10 uM incubated for 48 hrs in presence of 3 microg/ml doxorubicin by Chou-Talalay method; type: functional
# MCF7 [9] = assay: Inhibition of cell invasion in human MCF7 cells measured after 24 hrs in presence of doxorubicin by crystal violet staining based microscopic analysis; type: functional
# MCF7 [10] = assay: Synergistic antiproliferative activity against human MCF7 cells assessed as combination index at 20 uM incubated for 48 hrs in presence of 1 microg/ml doxorubicin by Chou-Talalay method; type: functional
# LNCaP = assay: Antiproliferative activity against human LNCaP cells assessed as inhibition of cell growth incubated for 48 hrs by MTT assay; type: functional, cell-based
# MCF7 [11] = assay: Synergistic antiproliferative activity against human MCF7 cells assessed as reduction in cell viability at 5 to 20 uM incubated for 48 hrs in presence of 1 microg/ml doxorubicin by MTT assay; type: functional; conditions: dose 5-20 µM
# MCF7 [12] = assay: Downregulation of H3K27 level in human MCF7 cells upto 160 uM incubated for 24 hrs in presence of doxorubicin by Western blot analysis; type: functional, cell-based
# MCF7 [13] = assay: Synergistic antiproliferative activity against human MCF7 cells assessed as combination index at 10 uM incubated for 48 hrs in presence of 0.5 microg/ml doxorubicin by Chou-Talalay method; type: functional
# MCF7 [14] = assay: Synergistic antiproliferative activity against human MCF7 cells assessed as reduction in cell viability at 5 to 20 uM incubated for 48 hrs in presence of 2.5 microg/ml doxorubicin by MTT assay; type: functional; conditions: dose 5-20 µM
# MCF-10A = assay: Antiproliferative activity against human MCF-10A cells assessed as inhibition of cell growth incubated for 48 hrs by MTT assay; type: functional, cell-based
# MCF7 [15] = assay: Synergistic antiproliferative activity against human MCF7 cells assessed as combination index at 5 uM incubated for 48 hrs in presence of 0.5 microg/ml doxorubicin by Chou-Talalay method; type: functional
# MCF7 [16] = assay: Synergistic antiproliferative activity against human MCF7 cells assessed as combination index at 10 uM incubated for 48 hrs in presence of 1 microg/ml doxorubicin by Chou-Talalay method; type: functional
# MCF7 [17] = assay: Synergistic antiproliferative activity against human MCF7 cells assessed as combination index at 10 uM incubated for 48 hrs in presence of 2.5 microg/ml doxorubicin by Chou-Talalay method; type: functional
# MCF7 [18] = assay: Synergistic antiproliferative activity against human MCF7 cells assessed as combination index at 40 uM incubated for 48 hrs in presence of 1 microg/ml doxorubicin by Chou-Talalay method; type: functional
# MCF7 [19] = assay: Synergistic antiproliferative activity against human MCF7 cells assessed as combination index at 5 uM incubated for 48 hrs in presence of 3 microg/ml doxorubicin by Chou-Talalay method; type: functional
# MCF7 [20] = assay: Synergistic antiproliferative activity against human MCF7 cells assessed as combination index at 10 uM incubated for 48 hrs in presence of 1.5 microg/ml doxorubicin by Chou-Talalay method; type: functional
# MCF7 [21] = assay: Synergistic antiproliferative activity against human MCF7 cells assessed as combination index at 40 uM incubated for 48 hrs in presence of 3 microg/ml doxorubicin by Chou-Talalay method; type: functional
# MCF7 [22] = assay: Induction of apoptosis in human MCF7 cells assessed as upregulation of cleaved PARP level at 40 uM incubated for 24 hrs in presence of doxorubicin by Western blot analysis; type: functional, cell-based
# MCF7 [23] = assay: Synergistic antiproliferative activity against human MCF7 cells assessed as combination index at 5 uM incubated for 48 hrs in presence of 2.5 microg/ml doxorubicin by Chou-Talalay method; type: functional
# MCF7 [24] = assay: Inhibition of cell invasion in human MCF7 cells measured after 24 hrs by crystal violet staining based microscopic analysis; type: functional
# MCF7 [25] = assay: Synergistic antiproliferative activity against human MCF7 cells assessed as combination index at 40 uM incubated for 48 hrs in presence of 2.5 microg/ml doxorubicin by Chou-Talalay method; type: functional
# MCF7 [26] = assay: Downregulation of survivin level in human MCF7 cells at 40 uM incubated for 24 hrs in presence of doxorubicin by Western blot analysis; type: functional, cell-based
# MCF7 [27] = assay: Induction of apoptosis in human MCF7 cells assessed as upregulation of cleaved caspase 3 level at 40 uM incubated for 24 hrs in presence of doxorubicin by Western blot analysis; type: functional, cell-based
# MCF7 [28] = assay: Synergistic antiproliferative activity against human MCF7 cells assessed as combination index at 40 uM incubated for 48 hrs in presence of 1.5 microg/ml doxorubicin by Chou-Talalay method; type: functional
# MCF7 [29] = assay: Synergistic antiproliferative activity against human MCF7 cells assessed as combination index at 20 uM incubated for 48 hrs in presence of 2.5 microg/ml doxorubicin by Chou-Talalay method; type: functional
# MCF7 [30] = assay: Synergistic antiproliferative activity against human MCF7 cells assessed as combination index at 20 uM incubated for 48 hrs in presence of 1.5 microg/ml doxorubicin by Chou-Talalay method; type: functional
# MCF7 [31] = assay: Synergistic antiproliferative activity against human MCF7 cells assessed as combination index at 5 uM incubated for 48 hrs in presence of 1 microg/ml doxorubicin by Chou-Talalay method; type: functional
# MCF7 [32] = assay: Synergistic antiproliferative activity against human MCF7 cells assessed as combination index at 20 uM incubated for 48 hrs in presence of 0.5 microg/ml doxorubicin by Chou-Talalay method; type: functional
# MCF7 [33] = assay: Synergistic antiproliferative activity against human MCF7 cells assessed as combination index at 40 uM incubated for 48 hrs in presence of 0.5 microg/ml doxorubicin by Chou-Talalay method; type: functional
# MCF7 [34] = assay: Antiproliferative activity against human MCF7 cells assessed as inhibition of cell growth incubated for 48 hrs by MTT assay; type: functional, cell-based; conditions: MCF7, 48 h
# MCF7 [35] = assay: Downregulation of H3K27 level in human MCF7 cells incubated for 24 hrs by Western blot analysis; type: functional, cell-based; conditions: dose <= 160.0 µM
# MCF7 [36] = assay: Synergistic antiproliferative activity against human MCF7 cells assessed as combination index at 5 uM incubated for 48 hrs in presence of 2 microg/ml doxorubicin by Chou-Talalay method; type: functional
# MCF7 [37] = assay: Inhibition of cell migration in human MCF7 cells assessed as measured after 24 hrs in presence of doxorubicin by microscopic analysis; type: functional
# MCF7 [38] = assay: Synergistic antiproliferative activity against human MCF7 cells assessed as combination index at 10 uM incubated for 48 hrs in presence of 2 microg/ml doxorubicin by Chou-Talalay method; type: functional
# MCF7 [39] = assay: Inhibition of cell migration in human MCF7 cells assessed as reduction in scratch measured after 24 hrs by microscopic analysis; type: functional
# MCF7 [40] = assay: Antitumor activity against human MCF7 cells xenografted in BALB/c nude mouse assessed as tumor growth inhibition at 50 mg/kg, ip measured upto 14 days; type: functional; conditions: MCF7, 336 h, time <= 14 day, read-out: TGI
# MCF7 [41] = assay: Downregulation of c-Myc level in human MCF7 cells at 40 uM incubated for 24 hrs in presence of doxorubicin by Western blot analysis; type: functional, cell-based
# MCF7 [42] = assay: Synergistic antiproliferative activity against human MCF7 cells assessed as reduction in cell viability at 5 to 20 uM incubated for 48 hrs in presence of 40 microg/ml doxorubicin by MTT assay; type: functional; conditions: dose 5-20 µM
# MCF7 [43] = assay: Synergistic antiproliferative activity against human MCF7 cells assessed as combination index at 20 uM incubated for 48 hrs in presence of 2 microg/ml doxorubicin by Chou-Talalay method; type: functional
smiles,measurement,setting,value
COc1cc2cc3[n+](cc2cc1OC)CCN(C(C)=O)c1cc2c(cc1-3)OCO2,IC50,[1],17.5 µM
COc1ccc2cc3[n+](cc2c1OC)CCc1ccsc1-3,IC50,[1],> 20 µM
COc1ccc2cc3[n+](cc2c1OC)CCCNc1cc2c(cc1-3)OCO2,IC50,[1],> 20 µM
COc1ccc2cc3[n+](cc2c1OC)CCc1c-3oc2ccccc12,IC50,[1],> 20 µM
COc1ccc2cc3[n+](cc2c1OC)CCCSc1cc2c(cc1-3)OCO2,IC50,[1],> 20 µM
COc1cc2cc3[n+](cc2cc1OC)CCOc1cc2c(cc1-3)OCO2.[Cl-],IC50,[1],1.51 µM
same,IC50,MCF7 [2],17.3 µM
same,inhibition in vivo at 50 mg/kg,MCF7 [3],83.9%
same,Activity,[4],Non-Toxic
same,IC50,PANC-1,> 50 µM
same,CI,MCF7 [5],0.66
same,CI,MCF7 [6],94.38
same,CI,MCF7 [7],1.86
same,CI,MCF7 [8],13.65
same,inhibition,MCF7 [9],Active
same,CI,MCF7 [10],3.44
same,IC50,LNCaP,43.7 µM
same,Activity,MCF7 [11],36%
same,Activity,MCF7 [12],Active
same,CI,MCF7 [13],88.25
same,Activity,MCF7 [14],27%
same,IC50,MCF-10A,> 50 µM
same,CI,MCF7 [15],517.04
same,CI,MCF7 [16],37.99
same,CI,MCF7 [17],12.07
same,CI,MCF7 [18],0.59
same,CI,MCF7 [19],39.24
same,CI,MCF7 [20],38.44
same,CI,MCF7 [21],0.55
same,Activity,MCF7 [22],Active
same,CI,MCF7 [23],57.34
same,inhibition,MCF7 [24],Active
same,CI,MCF7 [25],0.6
same,Activity,MCF7 [26],Active
same,Activity,MCF7 [27],Active
same,CI,MCF7 [28],0.57
same,CI,MCF7 [29],2.28
same,CI,MCF7 [30],3.59
same,CI,MCF7 [31],165.98
same,CI,MCF7 [32],3.11
same,CI,MCF7 [33],1.85
same,IC50,MCF7 [34],17.3 µM
same,Activity,MCF7 [35],Dose-Dependent Effect
same,CI,MCF7 [36],113.55
same,inhibition (INH),MCF7 [37],34.22%
same,CI,MCF7 [38],80.19
same,inhibition (INH),MCF7 [39],52.05%
same,inhibition in vivo at 50 mg/kg,MCF7 [40],59.9%
same,Activity,MCF7 [41],Active
same,Activity,MCF7 [42],36%
same,CI,MCF7 [43],2.65
